Results published in US20200263213A1, “METHODS FOR INCREASING THE TOLERANCE OF MICROBIAL CELLS TOWARDS ANTHRANILIC ACID BY LIMITING THE AMOUNT OF AMMONIA IN THE CULTURE MEDIUM” (priority 2017, published 2020).

Experiments:
[1] = system: C. glutomicum strain derived from ATCC 13032 by evolutionary engineering; assay: Metabolic activity after NH4-oAB and Na-oAB addition, batch cultivation in 1 L bioreactors (Example 2); type: cell-based, Corynebacterium glutomicum; details: 40 mL of 500 g/L oAB stock solution added at 7 h and 24 h; FIG. 2
Description: Both bioreactors: addition of 36 g/L glucose (added as stock solution) after 7.5 h and 24.5 h to prevent a glucose limitation.
A C. glutomicum strain derived from ATCC 13032 was used to compare the metabolic activity after NH4-oAB and Na-oAB addition during the cultivation. This strain was derived from Corynebacterium glutomicum ATCC 13032 by evolutionary engineering in order to increase its resistance against oAB. It was not further genetically modified. Thus it was not capable of oAB-production.

C. glutomicum ATCC 13032 = assay: Metabolic activity after NH4-oAB and Na-oAB addition, batch cultivation in 1 L bioreactors (Example 3, FIG. 3); type: cell-based; details: for biomass accumulation after addition: 40 mL of 500 g/L oAB stock solution added after 6.4 h and 23.6 h, FIG. 3
Excerpt: From this it follows that the toxicity of oAB on C. glutomicum ATCC 13032 in presence of high sodium concentrations is reduced as compared to the toxicity in presence of high ammonium concentrations.

[2] = system: modified C. glutamicum production strain; details: for decrease of OTR signal after addition: 292 mmol salt (70 mL stock solution) added after 64 h, Na-oAB added before (4 x 20 mL of 500 g/L); for final dry weight concentration: after a cultivation time of 91 hours, salt added after 64 h in the presence of oAB
[3] = system: modified C. glutaomicum production strain; assay: Evaluation of the maximum tolerable oAB concentration, batch cultivation in 1 L bioreactor (Example 1); type: cell-based, Corynebacterium glutaomicum
Description: FIG. 1: Evaluation of the maximum tolerable oAB concentration during batch cultivation in a 1 L lab-scale bioreactor with a modified C. glutaomicum production strain.
The maximum tolerable oAB concentration in the presence of sodium ions in the medium was tested with a modified C. glutaomicum production strain. This strain was derived from Corynebacterium glutaomicum ATCC 13032 by evolutionary engineering in order to increase its resistance against oAB. This strain was then genetically modified to make it capable of oAB-production and comprised the following modifications. The incorporated modifications have the effect of reduced expression of the trpD gene, encoding anthranilate phosphoribosyl transferase, knock out of gene ppc, encoding PEP Carboxylase, constitutive overexpression of heterologous aroG^D146N and trpEG^540F genes from E. coli, encoding feedback resistant DAHP synthase and anthranilate synthase, respectively, constitutive overexpression of the gene aroL from E. coli, encoding shikimate kinase.
Glucose was added as stock solution after 40 h, 48 h, 63 h, 65 and 71.5 h to prevent a glucose limitation.

N.Nc1ccccc1C(=O)O [NH4-oAB]
OTR signal after addition [1]: constant OTR signal
biomass concentration after addition [1]: reduced biomass accumulation
biomass accumulation after addition (C. glutomicum ATCC 13032): growth inhibition after 24 h
o-aminobenzoate concentration at which cell growth (dry weight) stops (C. glutomicum ATCC 13032; according to FIG. 3): > 50 g/L
o-aminobenzoate concentration at which the metabolic activity of bacterial cells (OTR) is limited (C. glutomicum ATCC 13032; according to FIG. 3, concentration not including the mass of the cation): more than 25 g/L

Cl.N [NH4Cl]
decrease of OTR signal after addition [2]: about 20%
final dry weight concentration [2]: 6.8 g/L

Nc1ccccc1C(=O)[O-].[Na+] [Na-oAB]
OTR signal after addition [1]: continued to increase
biomass concentration after addition [1]: continued to increase
biomass accumulation after addition (C. glutomicum ATCC 13032): biomass accumulation continued

[Cl-].[Na+] [NaCl]
decrease of OTR signal after addition [2]: no effect
final dry weight concentration [2]: 7.8 g/L

Nc1ccccc1C(=O)O [oAB, 2-aminobenzoic acid]
oAB concentration at which an increase in biomass concentration was still observed ([3]; oAB added stepwise as sodium salt (dissolved with NaOH at pH 7), pH 7 controlled with NH4OH, 30° C.): 80 g/L
oAB concentration resulting in a decrease of the metabolic activity (declining OTR signal) and no further increase in biomass ([3]; oAB increased from 80 g/L after 71 h, added as sodium salt (dissolved with NaOH at pH 7)): 100 g/L
